# Laboratory results from US8703776B2 (Cymabay Therapeutics, Inc., priority 2011, dated 2014).
# Molecular target: T1, human GPR131 (Homo sapiens, UniProt Q8TDU6)
# T1 construct: expressed in transfected cells
# T1 sequence (Q8TDU6 1-330): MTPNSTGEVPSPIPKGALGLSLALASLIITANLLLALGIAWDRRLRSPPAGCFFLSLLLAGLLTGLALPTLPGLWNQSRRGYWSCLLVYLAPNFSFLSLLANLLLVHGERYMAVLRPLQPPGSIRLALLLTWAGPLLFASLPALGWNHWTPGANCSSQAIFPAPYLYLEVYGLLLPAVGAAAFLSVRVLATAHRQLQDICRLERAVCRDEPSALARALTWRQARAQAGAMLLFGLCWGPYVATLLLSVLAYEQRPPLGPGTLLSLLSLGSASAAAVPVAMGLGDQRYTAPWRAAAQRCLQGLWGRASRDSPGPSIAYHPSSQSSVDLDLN
# Experiment: Stimulation of cAMP in stable cell line expressing human GPR131 (FRET cAMP kit)
# Format: cell-based
# Details: 0.5 h; 1.1 μM compound, relative to maximal stimulatory activity of lithocholic acid at 3.3 μM; 30 minutes at 37° C.; read-out: Percent Activity @ 1.1 μM (of 3.3 uM LCA) (%)
# Description: This assay was developed using a stable cell line expressing human GPR131.
# To measure cAMP activity in response to GPR131 agonists, GPR131 cells suspended in DMEM/F12 medium with 1 mM IBMX were seeded in 384 well plates at 5000 cells per well. After incubating with test compounds at 37° C. for 30 minutes cAMP was measured using a fluorescene resonance energy transfer cAMP kit from Cis Bio (Bedford, Mass.) according to the manufacturer's instructions. Briefly, cells were lysed, and cAMP levels determined by competitive immunoassay using D2 labeled cAMP, and europium cryptate tagged anti cAMP antibody. Decreases in the FRET signal (fluorescence ratio (665 nm/620 […]) correspond to increases in intracellular cAMP levels.
# Activities of test compounds in Table 1 below are expressed as % activity at 1.1 μM compound compared to the maximal stimulatory activity of lithocholic acid (LCA) (determined at 3.3 μM LCA)
row,SMILES,activation at 1.1 µM [%]
1,"CN(Cc1ccncc1)C(=O)c1cnc(SCc2c(F)cccc2Cl)n1-c1cccc(F)c1 [Compound 564, 2-((2-Chloro-6-fluorobenzyl)thio)-1-(3-fluorophenyl)-N-methyl-N-(pyridin-4-ylmethyl)-1H-imidazole-5-carboxamide]",99
2,"CN(Cc1ccncc1)C(=O)c1cnc(SCc2c(F)cccc2Cl)n1C1CCCCC1 [Compound 565, 2-((2-Chloro-6-fluorobenzyl)thio)-1-cyclohexyl-N-methyl-N-(pyridin-4-ylmethyl)-1H-imidazole-5-carboxamide]",99
3,"Cc1nn(C)cc1CN(C)C(=O)c1cnc(CSc2c(Cl)cccc2Cl)n1-c1ccc(F)cc1 [Compound 567, 2-(((2,6-Dichlorophenyl)thio)methyl)-N-((1,3-dimethyl-1H-pyrazol-4-yl)methyl)-1-(4-fluorophenyl)-N-methyl-1H-imidazole-5-carboxamide]",96
4,"Cc1nn(C)cc1CN(C)C(=O)c1cnc(COc2c(F)ccc(F)c2F)n1-c1ccc(F)cc1 [Compound 568, N-((1,3-Dimethyl-1H-pyrazol-4-yl)methyl)-1-(4-fluorophenyl)-N-methyl-2-((2,3,6-trifluorophenoxy)methyl)-1H-imidazole-5-carboxamide]",83
5,"Cc1nn(C)cc1CN(C)C(=O)c1cnc(CSc2c(F)c(F)cc(F)c2F)n1-c1ccc(F)cc1 [Compound 569, N-((1,3-Dimethyl-1H-pyrazol-4-yl)methyl)-1-(4-fluorophenyl)-N-methyl-2-(((2,3,5,6-tetrafluorophenyl)thio)methyl)-1H-imidazole-5-carboxamide]",98
6,"Cc1nn(C)cc1CN(C)C(=O)c1cnc(CSCc2c(F)ccc(F)c2F)n1-c1ccc(F)cc1 [Compound 572, N-((1,3-Dimethyl-1H-pyrazol-4-yl)methyl)-1-(4-fluorophenyl)-N-methyl-2-(((2,3,6-trifluorobenzyl)thio)methyl)-1H-imidazole-5-carboxamide]",88
7,"CN(Cc1ccnc(Cl)c1)C(=O)c1cnc(SCc2c(F)ccc(F)c2F)n1-c1ccc(F)cc1 [Compound 578, N-((2-Chloropyridin-4-yl)methyl)-1-(4-fluorophenyl)-N-methyl-2-((2,3,6-trifluorobenzyl)thio)-1H-imidazole-5-carboxamide]",99
8,"Cc1nn(C)cc1CN(C)C(=O)c1cnc(SCc2ccncc2)n1-c1ccc(F)cc1 [Compound 579, N-((1,3-Dimethyl-1H-pyrazol-4-yl)methyl)-1-(4-fluorophenyl)-N-methyl-2-((pyridine-4-ylmethyl)thio)-1H-imidazole-5-carboxamide]",85
9,Cc1cc(CN(C)C(=O)c2cnc(SCCc3ccc(F)c(Cl)c3)n2-c2ccc(F)cc2)ccn1 [Compound 583],96
10,"Cc1cc(CN(C)C(=O)c2c(C)nc(SCc3c(F)ccc(F)c3F)n2-c2ccc(F)cc2)ccn1 [Compound 585, 1-(4-Fluorophenyl)-N-4-dimethyl-N-((2-methylpyridin-4-yl)methyl)-2-((2,3,6-trifluorobenzyl)thio)-1H-imidazole-5-carboxamide]",97
11,"Cc1cc(CN(C)C(=O)c2cnc(S(=O)(=O)CCc3ccc(F)c(Cl)c3)n2-c2ccc(F)cc2)ccn1 [Compound 586, 2-((3-Chloro-4-fluorophenethyl)sulfonyl)-1-(4-fluorophenyl)-N-methyl-N-((2-methylpyridin-4-yl)methyl)-1H-imidazole-5-carboxamide]",86
12,CN(Cc1ccnc(C(F)(F)F)c1)C(=O)c1cnc(SCc2c(F)ccc(F)c2F)n1-c1ccc(F)cc1 [Compound 587],86
13,"Cc1cc(CN(C)C(=O)c2cnc(I)n2-c2ccc(F)cc2)ccn1 [Compound 589, 1-(4-Fluorophenyl)-2-iodo-N-methyl-N-((2-methylpyridin-4-yl)methyl)-1H-imidazole-5-carboxamide]",87
14,"Cc1nn(C)cc1CN(C)C(=O)c1cnc(Br)n1-c1ccc(F)cc1 [Compound 590, 2-Bromo-N-((1,3-dimethyl-1H-pyrazol-4-yl)methyl)-1-(4-fluorophenyl)-N-methyl-1H-imidazole-5-carboxamine]",86
15,"COc1ccc(Cl)c(CSc2ncc(C(=O)N3CCCC3c3ccncc3)n2-c2ccc(F)cc2)c1F (centres unmarked) [Compound 591, (2-((6-Chloro-2-fluoro-3-methoxybenzyl)thio)-1-(4-fluorophenyl)-1H-imidazol-5-yl)(2-(pyridin-4-yl)pyrrolidin-1-yl)methanone]",94
16,"Cc1nn(C)cc1CN(C)C(=O)c1cnc(SCc2ccccc2)n1-c1ccc(F)cc1 [Compound 593, 2-(Benzylthio)-N-((1,3-dimethyl-1H-pyrazol-4-yl)methyl)-1-(4-fluorophenyl)-N-methyl-1H-imidazole-5-carboxamide]",99
17,"COc1ccc(Cl)c(CSc2nnc(C(=O)N(C)Cc3ccncc3)n2-c2ccc(F)cc2)c1F [Compound 594, 5-((6-Chloro-2-fluoro-3-methoxybenzyl)thio)-4-(4-fluorophenyl)-N-methyl-N-(pyridin-4-ylmethyl)-4H-1,2,4-triazole-3-carboxamide]",98
18,"Cc1ccc(Cl)c(CSc2nnc(C(=O)N(C)Cc3ccncc3)n2-c2ccc(F)cc2)c1F [Compound 595, 5-((6-Chloro-2-fluoro-3-methylbenzyl)thio)-4-(4-fluorophenyl)-N-methyl-N-(pyridin-4-ylmethyl)-4H-1,2,4-triazole-3-carboxamide]",98
19,"COc1ccc(Cl)c(CSc2ncc(C(=O)N(C)Cc3cn(C)nc3C)n2-c2ccc(F)cc2)c1F [Compound 596, 2-((6-Chloro-2-fluoro-3-methoxybenzyl)thio)-N-((1,3-dimethyl-1H-pyrazol-4-yl)methyl)-1-(4-fluorophenyl)-N-methyl-1H-imidazole-5-carboxamide]",100
20,"Cc1ccc(Cl)c(CSc2ncc(C(=O)N(C)Cc3cn(C)nc3C)n2-c2ccc(F)cc2)c1F [Compound 597, 2-((6-Chloro-2-fluoro-3-methylbenzyl)thio)-N-((1,3-dimethyl-1H-pyrazol-4-yl)methyl)-1-(4-fluorophenyl)-N-methyl-1H-imidazole-5-carboxamide]",100
21,"CN(Cc1cccnc1)C(=O)c1cnc(SCc2c(F)ccc(F)c2F)n1-c1ccc(F)cc1 [Compound 603, 1-(4-Fluorophenyl)-N-methyl-N-(pyridin-3-ylmethyl)-2-((2,3,6-trifluorobenzyl)thio)-1H-imidazole-5-carboxamide]",82
22,Fc1ccc(-n2c(COCc3ccncc3)nnc2SCc2c(F)ccc(F)c2F)cc1 [Compound 606],98
23,"CN(Cc1ccncc1)C(=O)c1cnc(SCc2c(F)cccc2C(F)(F)F)n1-c1ccc(F)cc1 [Compound 607, 2-((2-Fluoro-6-(trifluoromethyl)benzyl)thio)-1-(4-fluorophenyl)-N-methyl-N-(pyridin-4-ylmethyl)-1H-imidazole-5-carboxamide]",93
24,"CN(Cc1ccncc1)C(=O)c1cnc(SCc2ccc(Cl)cc2C(F)(F)F)n1-c1ccc(F)cc1 [Compound 609, 2-((4-Chloro-2-(trifluoromethyl)benzyl)thio)-1-(4-fluorophenyl)-N-methyl-N-(pyridin-4-ylmethyl)-1H-imidazole-5-carboxamide]",86
25,"CN(Cc1ccncc1)C(=O)c1cnc(SCc2cccc(C(F)(F)F)c2F)n1-c1ccc(F)cc1 [Compound 610, 2-((2-Fluoro-3-(trifluoromethyl)benzyl)thio)-1-(4-fluorophenyl)-N-methyl-N-(pyridin-4-ylmethyl)-1H-imidazole-5-carboxamide]",100
26,"CN(Cc1ccncc1)C(=O)c1cnc(SCc2cc(F)ccc2F)n1-c1ccc(F)cc1 [Compound 611, 2-((2,5-Difluorobenzyl)thio)-1-(4-fluorophenyl)-N-methyl-N-(pyridin-4-ylmethyl)-1H-imidazole-5-carboxamide]",99
27,"COc1ccc(Cl)c(CSc2ncc(C(=O)N(C)Cc3ccncc3)n2-c2ccc(F)cc2)c1F [Compound 612, 2-((6-Chloro-2-fluoro-3-methoxybenzyl)thio)-1-(4-fluorophenyl)-N-methyl-N-(pyridin-4-ylmethyl)-1H-imidazole-5-carboxamide]",100
28,"CN(Cc1ccncc1)C(=O)c1cnc(SCc2ccccc2F)n1-c1ccc(F)cc1 [Compound 613, 2-((2-Fluorobenzyl)thio)-1-(4-fluorophenyl)-N-methyl-N-(pyridin-4-ylmethyl)-1H-imidazole-5-carboxamide]",100
29,"CN(Cc1ccncc1)C(=O)c1cnc(SCc2cc(F)ccc2Cl)n1-c1ccc(F)cc1 [Compound 615, 2-((2-Chloro-5-fluorobenzyl)thio)-1-(4-fluorophenyl)-N-methyl-N-(pyridin-4-ylmethyl)-1H-imidazole-5-carboxamide]",98
